We go through eleven compounds from article PMC2289219 (The Journal of Cell Biology, 1991).

For one data set, the system named is Bovine brain ECs. Type of data set: cell-based.
The next data set deals with cAMP levels. Type of data set: cell-based.
The next data set concerns BBB. Further details: species or system rats. To be noted: rat, in vivo.

For the compound “8-(4-chlorophenylthio)-adenosine-3':5' mono- phosphate, cyclic [CPTcAMP]”, the “Effect on electrical resistance (agents that elevate cAMP)” value (shortened to “Effect on electrical resistance”) in the data set with Bovine brain ECs is listed as “increases rapidly”. Take `O=S(=O)(NCCNCC=Cc1ccc(Br)cc1)c1cccc2cnccc12` [H-89, N-[2-(p-bromocinnamylamino)ethyl]-5-isoquinolinesulfonamide]: the “Effect of protein kinase inhibitors on resistance” value in the data set on Bovine brain ECs is reported as “decreased”.

As to `C=C[C@@]1(C)CC(=O)[C@]2(O)[C@@]3(C)[C@@H](O)CCC(C)(C)[C@@H]3[C@H](O)[C@H](OC(C)=O)[C@@]2(C)O1` [forskolin], the “Effect on electrical resistance” value in the data set on Bovine brain ECs is listed as “also effective”. In the data set on cAMP levels, the “Increase in cAMP levels” value was “two to threefold increase”. In the case of `CC(C)NCC(O)COc1cccc2ccccc12` (centres unmarked) [propranolol], in the data set on monolayers of brain ECs (Fig. 7 top, about 300 nM labeled tracer, apical to basolateral, 37), the “Flux across high resistance monolayers” value was “moved rapidly”.

Regarding `CN[C@@H]1C[C@H]2O[C@@](C)([C@@H]1OC)n1c3ccccc3c3c4c(c5c6ccccc6n2c5c31)C(=O)NC4` [staurosporine], in the data set on BBB, the “Increase in ability of peripherally administered BSA to enter the brain” value is given as “three to fivefold” and the “Increase in ability of peripherally administered sucrose to enter the brain” value was “three to fivefold”. On to `OC[C@H]1O[C@@](CO)(O[C@H]2O[C@H](CO)[C@@H](O)[C@H](O)[C@H]2O)[C@@H](O)[C@@H]1O` [sucrose], for which the “Flux across low resistance monolayers” value with monolayers of brain ECs was “much greater than that across high resistance monolayers”. Consider Atrial natriuretic factor, for which, in the data set with Bovine brain ECs, the “Effect on resistance (elevated cGMP)” value was “simi- lar effects”. On to IGF-1, for which, in the data set with Bovine brain ECs, the “Whether the factor accounts for the activity of astrocyte CM” value is “could not be accounted for fully”. Same read-out and setting: under PDGF stands “could not be accounted for fully”.

RO20-1724: in the data set on Bovine brain ECs, the “Effect on electrical resistance” value is given as “increases rapidly”. Also, the “Increase in cAMP levels” value in the data set on cAMP levels is listed as “two to threefold increase”. Turning to calcitonin gene-related peptide, in the data set on Bovine brain ECs, the “Effect on electrical resistance” value is “also effective”.
